# What was measured:
# [1] = system: IL-12 p40 protein; assay: IL-12 p40 protein secretion by MRL/lpr splenocytes; type: cell-based, mouse; conditions: splenocytes stimulated with LPS and IFN-γ 24 hr; stimulated control 45.3±9.1; p=0.003
# Description: When splenocytes were activated with LPS (100 μg/ml) and IFN-γ 100U/ml) for 24 hr the mean (±SEM) IL-12 p40 secretion was 45.3±9.1 pg/ml.
# [2] = system: TGF-β1 mRNA; assay: PCR of TGF-β1 mRNA in SLE and control T cells / PBMCs; type: cell-based, human
# Description: Gene expression of TGF-β1 was tested to determine if the gene expression is suppressed by deacetylation of histones in SLE. In this determination, SLE PBMCs or isolated T cells were treated with the histone deacetylase inhibitors (HDIs), TSA or SAHA, for 18hr. […] Subsequently, semi-quantitative PCR was performed to determine the amounts of […] transcripts in SLE and control T cells treated with vehicle or TSA (1000 ng/ml). […] There is no change in GAPDH transcript in normal and SLE T cells after treatment of HDIs. Increased TGF-β1 transcript was associated with a subsequent increase in TGF-β1 protein secretion by SLE PBMCs. When compared to vehicle treated PBMCs, total TGF-β1 protein in culture supernatants from SLE PBMCs increased by approximately 30%. In contrast, there was no increase in total TGF-β1 secretion in TSA treated cells in normal healthy controls. Similar results may be obtained by SAHA.
# [3] = system: MRL/lpr mice; assay: In vivo TSA in 12 wk MRL/lpr mice (0.5 mg/kg sc, 4 weeks); parameters: species or system mouse
# Description: TSA was administered to MRL/lpr mice at 12 wks of age coinciding with the time of onset of clinical disease. TSA was given subcutaneously (sc) at a dose of 0.5 mg/kg dissolved in […]; control mice were given the vehicle alone (40 μl DMSO). Proteinuria was assessed as a measure of albumin in mg/mouse/day prior to the initial dose (at 12 wks of age) and after four wks of treatment (at 16 wks of age). […] After four weeks of treatment, nine mice in each group were sacrificed. At necropsy, the weight of the spleens were measured and sera was collected. […] IFN-γ was measured by ellispot assay in splenocytes isolated from vehicle or TSA treated mice.
# TSA was administered to MRL/lpr mice at 12 wks of age at the time of onset of clinical disease. TSA was given subcutaneously (sc) at a dose of 0.5 mg/kg dissolved in 40 μl DMSO; control mice were given the vehicle alone (40 μl DMSO). After four weeks of treatment, nine mice in each group were sacrificed. One-half of one kidney was fixed in 10% formaldehyde/PBS, embedded in paraffin, and stained with hematoxylin and eosin. An examiner blinded to the treatment group quantified disease activity as follows: (a) Glomeruli were graded for hypercellularity (0–4), crescent formation (0–4), and inflammation (0–4). (b) The interstitium was graded for inflammation (0–4). Scores were additive (BALB/c mice historically receive scores of 0–0.5). Half of the second kidney was snap-frozen, embedded in OCT, frozen sections cut and analyzed for C3 deposition by immunofluorescence.
# In determining whether TSA suppresses autoantibody production anti-dsDNA and anti GBM-auto-antibodies were measured.
# [4] = system: IFN-γ mRNA; assay: IFN-γ mRNA in MRL/lpr splenocytes; type: cell-based, mouse
# Description: In determining whether TSA can down-regulate IFN-γ mRNA, splenocytes from older, 24-wk MRL/lpr mice were treated with 0 to 500 ng/ml of TSA for 18 hr. […] Compared to splenocytes from 10-wk old mice that had low IFN-γ mRNA (FIG. 8B, lane 1), older mice had higher constitutive levels of IFN-γ transcripts normalized to the housekeeping gene, GAPDH (FIG. 8A, lane 1). […] Maximal inhibition of IFN-γ transcript consistently occurred at 500 ng/ml of TSA.
# To establish whether TSA or SAHA down-regulates Con A-induced IFN-γ mRNA expression, splenocytes from 10-wk old mice were stimulated with Con A (10 μg/ml) for 18 hr. From previous kinetic studies, IFN-γ mRNA is maximally expressed when T cells are activated for 18 hr. […] Thus, both TSA and SAHA inhibit IFN-γ. mRNA up-regulation in response to mitogenic stimulation.
# [5] = system: IL-10 mRNA; assay: RT-PCR of IL-10 transcript in SLE T cells; type: cell-based, human
# Description: T cells were cultured in the absence or presence of increasing concentrations of TSA for 18 hr in 5% CO2 at 37° C. RNA was isolated, cDNAs were prepared, and RT-PCR was performed as previously detailed (D. Laxminarayana, et al., J. Clin. Invest. 92, 2207 (1993)). The primers used were: […]
# The reaction mixtures were subjected to 30 cycles of denaturation (94° C., 1 min) and annealing for 1 min at 53° C. (CD154), […] (GAPDH) and 55° C. (IL-10 and IFN-γ). Extension was for 2 min at 72° C. with a final extension of 7 min at 72° C. using a DNA thermal cycler (Perkin-Elmer).
# To determine whether TSA could down-regulate IL-10, a dose-response analysis was performed. […] However, when SLE T cells were cultured in the presence of TSA for 18 hr, no detectable IL-10 transcripts were identified (FIG. 2C, lanes 3, 6, 9). When IL-10 transcripts from all eight SLE subjects were quantified relative to GAPDH transcripts, TSA inhibited expression of IL-10 mRNA by 71% (FIG. 2D; P=0.029). […] IL-10 and IFN-γ protein production were quantified by ELISA (R & D Systems, Minneapolis, Minn.). […] Thus, like CD154, TSA was able to block expression of IL-10 transcript, abolishing IL-10 production by SLE T cells.
# [6] = 0.5 mg/kg sc, 4 weeks treatment
compound,measurement,setting,value
"CC(/C=C/C(=O)NO)=C\[C@@H](C)C(=O)c1ccc(N(C)C)cc1 [TSA, Trichostatin A]",IL-12 p40 secretion (mean±SEM),[1],1.5 ± 1.4 pg/mL
same,increase in TGF-β1 transcript,[2]; SLE PBMCs exposed to TSA and SAHA (summary statement),eight-fold
same,induction of TGF-β1 mRNA compared to vehicle treated cells,"[2]; SLE T cells, 1000 ng/ml TSA, 18 hr, real time PCR",8 fold
same,"TGF-β1 mRNA levels, semi-quantitative PCR","[2]; SLE T cells, TSA 1000 ng/ml",increased
same,TGF-β1 mRNA change,"[2]; SLE T cells, TSA concentrations to 500 ng/ml",modest increase
same,proteinuria (albumin),"[3]; 0.5 mg/kg sc from 12 wks, after four wks, vs vehicle",prevented an increase in proteinuria
same,C3 deposition (kidney immunofluorescence),[3]; [6],did not show change
same,glomerulonephritis and renal score,[3]; [6],significant reduction
same,"number of IFN-γ secreting cells (ellispot, splenocytes)","[3]; 0.5 mg/kg sc, four weeks",significant decrement
same,spleen weight,"[3]; 0.5 mg/kg sc, four weeks, vs vehicle",significantly decreased in weight
same,overall health,"[3]; 0.5 mg/kg sc, vs vehicle",signs of better overall health
same,anti-dsDNA and anti GBM auto-antibodies,"[3]; TSA vs vehicle, 4 weeks treatment",no significant change
same,Con A-induced up-regulation of IFN-γ transcript,"[4]; splenocytes from 10-wk old mice preincubated 18 hr, Con A 10 μg/ml 18 hr, vs vehicle",markedly reduced
same,TSA concentration of maximal inhibition of IFN-γ transcript,"[4]; splenocytes from 24-wk MRL/lpr mice, 0 to 500 ng/ml TSA, 18 hr",500 ng/mL
same,TSA concentration at which no detectable IL-10 mRNA was identified,"[5]; SLE T cells, dose-response, RT-PCR",700 to 800 ng/mL
same,inhibition of expression of IL-10 mRNA,"[5]; eight SLE subjects, TSA 1000 ng/ml 18 hr, relative to GAPDH, P=0.029",71%
